B1: Interferon-γ (protein, UniProt P01581 23-156, looked up)
Interferon gamma: QGTLIESLESLKNYFNSSSMDAMEGKSLLLDIWRNWQKDGNTKILESQIISFYLRLFEVLKDNQAISNNISVIESHLITNFFSNSKAKKDAFMSIAKFEVNNPQIQHKAVNELIRVIHQLSPESSLRKRKRSRC
notes: Interferon-γ co-treatment of CCl4 treated rats

Tests used:
rat [1] = test: Biochemical assay in serum (ALAT, ASAT, TBil) of CCl4 exposed rats, with or without Interferon-γ co-treatment; format: in vivo, rat (Wistar)
Description: (§1) The repeated administration of CCl4 is widely employed as an animal model of human hepatic fibrosis/cirrhosis. In order to evaluate whether the sugar marker has high predictive values for the liver damage, we tested N-glycan profiling on the CCl4 treated, co-treated with INF-γ and control rat groups (Wistar). Take into account that N-glycosylation in animals is species-specific, we therefore profiled the N-linked glycan to get a fingerprinting in rat serum. […] N-glycan peaks of P1, P3, P5, P6, P7, P9 are consistent with that of human. However, four peaks (rP2, rP4, rP8 and rP10) are rat-specific N-linked sugars.
Moreover, the rat serum alanine aminotransferase activity (ALAT), aspartate aminotransferase activity (ASAT) and total bilirubin concentration (TBil) were analysed using routine photometric tests on a Hitachi 747 analyser (Boehringer Mannheim GmbH, Diagnostica) for subsequent assessment of hepatic injury and liver function, respectively.

rat [2] = test: Serum N-glycan profile of rats treated with CCl4 and co-treated with Interferon-γ; format: in vivo, rat (Wistar)
Description: The glycoproteins were denatured by addition of at least 2 volumes RCM buffer (8 M urea, 360 mM Tris, pH 8.6, 3.2 mM EDTA) to each sample in a final volume of at least 50 μl, and the samples were then placed at 50° C. for 1 h. The N-linked glycans present on the serum proteins in 5 μl of serum were released after binding the protein to an Immobilon P-lined 96-well plate. They were then derivatized with APTS (Molecular Probes, Eugene, Calif., USA) and analyzed on an ABI 377A DNA sequencer (Applied Biosystems).
as §1

[3] = rat, repeated administration of CCl4, Week 12, vs control group
[4] = CCl4 treated rat co-treated with INF-γ, Week 12, vs CCl4 group

Molecule	serum alanine aminotransferase activity (ALAT) (rat [1]; [3])	serum aspartate aminotransferase activity (ASAT) (rat [1]; [3])	total bilirubin concentration (TBil) (rat [1]; [3])	trends of six serum N-glycan peaks (rat [2]; CCl4 treated rat group compared to control group)	N-glycan profile between CCl4 group and control group (rat [2]; rat, Week 9, peaks P4 and P5 even in Week 6)	liver damage caused by CCl4 treatment (rat [1]; CCl4 treated rat co-treated with INF-γ, Week 12)	serum ALAT level (rat [1]; [4])	serum ASAT level (rat [1]; [4])	serum bilirubin level (rat [1]; [4])	changes of serum N-glycan peaks (rat [2]; INF-γ co-treated group compared to CCl4 group)
ClC(Cl)(Cl)Cl [CCl4]	significantly raised	significantly raised	significantly raised	either increased or decreased	different trends					
B1						partially protected	decreasing levels	decreasing levels	decreasing levels	less slop changes than CCl4-group
